Here are results for 14 molecules from US20240246967A1, “AXL COMPOUNDS” (ARCUS BIOSCIENCES, INC., priority 2021, published 2024).

The target in assay [1] is T1, Axl (Homo sapiens, UniProt P30530).
T1 sequence (P30530 26-894): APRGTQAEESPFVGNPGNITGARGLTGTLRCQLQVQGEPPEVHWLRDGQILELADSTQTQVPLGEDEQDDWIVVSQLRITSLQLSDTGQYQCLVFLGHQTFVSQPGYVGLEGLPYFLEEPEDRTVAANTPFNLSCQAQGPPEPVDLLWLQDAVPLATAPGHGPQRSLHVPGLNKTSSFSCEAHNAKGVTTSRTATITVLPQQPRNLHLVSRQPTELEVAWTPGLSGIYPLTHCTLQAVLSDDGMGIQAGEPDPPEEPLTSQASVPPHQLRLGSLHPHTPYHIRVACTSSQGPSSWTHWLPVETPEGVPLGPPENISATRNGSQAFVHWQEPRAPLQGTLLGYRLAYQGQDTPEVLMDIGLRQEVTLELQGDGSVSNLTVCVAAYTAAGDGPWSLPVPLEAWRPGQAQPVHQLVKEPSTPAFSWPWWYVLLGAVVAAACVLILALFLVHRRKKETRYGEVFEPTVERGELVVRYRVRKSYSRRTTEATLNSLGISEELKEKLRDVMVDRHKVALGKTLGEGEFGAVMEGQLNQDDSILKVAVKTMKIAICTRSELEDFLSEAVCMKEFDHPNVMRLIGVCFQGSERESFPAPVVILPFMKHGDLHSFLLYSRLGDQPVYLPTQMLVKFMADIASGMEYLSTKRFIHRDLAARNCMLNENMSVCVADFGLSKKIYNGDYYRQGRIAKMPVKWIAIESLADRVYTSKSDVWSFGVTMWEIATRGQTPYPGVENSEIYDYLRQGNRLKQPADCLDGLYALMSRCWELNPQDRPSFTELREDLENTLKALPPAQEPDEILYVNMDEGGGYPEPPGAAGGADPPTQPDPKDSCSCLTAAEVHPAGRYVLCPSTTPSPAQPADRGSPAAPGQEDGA
Put plainly: HTRF KinEASE-TK biochemical potency assay, AXL. Set-up: purchased Invitrogen. The following applies: 5 nM AXL, 700 μM ATP, 800 nM TK Substrate-biotin. The procedure:
Purified recombinant human AXL, TYRO3 and MER proteins were purchased from Invitrogen™. 10 nM AXL, 2 nM TYRO3 or MER were incubated with varying concentrations of compounds in 50 mM HEPES, pH 7.4, 10 mM MgCl2, 0.01% BSA, 1 mM DTT and 2% DMSO in a total volume of 20 μl in a 384-well microplate (Corning™ #3640) at RT for 1 h. The AXL, TYRO3 and MER enzymatic reaction was initiated by transferring 10 μl of enzyme and compound mixture into 10 μl of 1.6 μM TK Substrate-biotin (HTRF® KinEASE-TK kit, Cisbio) and 1400 μM ATP pre-incubated in 50 mM HEPES, pH 7.4, 10 mM MgCl2, 0.01% BSA, 1 mM DTT in a 384-well microplate (Corning™ #3640) at RT, giving the final reaction conditions: 5 nM AXL, 1 nM TYRO3 or MER, 800 nM TK Substrate-biotin and 700 μM ATP in 50 mM HEPES, pH 7.4, 10 mM MgCl2, 0.01% BSA, 1 mM DTT and 1% DMSO with varying concentrations of compounds. Following 2 h incubation at RT, the AXL, TYRO3 and MER enzymatic reaction was stopped by transfer of 10 μl of reaction into 10 μl of detection mix (400 nM Streptavidin-XL665, 200-fold dilution TK Antibody-Cryptate and detection buffer, HTRF® KinEASE-TK kit, Cisbio) in a white 384-well microplate (Perkin Elmer, OptiPlate 384). After 1 h incubation at RT, the plate was put into a plate reader (Evision) to read at 665/620 nm (acceptor/donor) for HTRF. The value of the DMSO blank (MIN inhibition=100% activity) was used as a negative control. The positive control was established by adding 5 μl of enzyme and DMSO mixture into 10 μl of detection mix followed by addition of 5 μl of TK Substrate-biotin and ATP mixture (MAX inhibition=0% activity). To calculate the percent activity, Equation 1 was used. Ratio 665/620 is the value at a given compound concentration: […]

In assay [2] the target is T1, Axl. The assay is described as follows: Axl NanoBRET intracellular kinase assay (intracellular binding, Cell Binding). Also noted: host or cells: HEK-293. The following applies: HEK-293 cells transfected with Axl-NanoLuc fusion vector; 0.35 μM K-5 NanoBRET tracer. The procedure:
Axl NanoBRET™ intracellular kinase assay (Promega, N2540) was performed according to manufacturer's recommendation. In brief, HEK-293 cells are transiently transfected with Axl-NanoLuc fusion vector (Promega, NV1071), utilizing Fugene HD transfection reagent (Promega, E2311) a day before experiment following manufacturer's recommendation.
The day of the assay, the cells were collected and resuspended in Opti-MEM media (ThermoFisher, 31985070) at 2e5 cells/mL concentration. Testing compounds were serial diluted and dispensed into a white 384 well polystyrene plate at 200 nL in 100% DMSO. 40 μL of resuspended cells is then added per well for a final condition of 8K cells/well with 0.5% DMSO. After one-hour compound pre-incubation at 37° C. and 5% CO2, cells were further incubated with 0.35 μM K-5 NanoBRET tracer for two-hours at 37° C. and 5% CO2. […] of 3× substrate plus Inhibitor solution was prepared according to kits manual and added to the cells followed by a 30 second pulse centrifugation spin. The plate was then immediately read utilizing an Envision (Perkin Elmer) plate reader. The BRET signal is measured by taking the ratio of the emissions reading at 610 nm and 450 nm. Compound binding is based on the decrease BRET signal caused by the displacement of the K-5 tracer. […] IC50 value of compounds was determined by 4-parameter non-linear regression fitting of percent activity in GraphPad Prism software.

As for `C[C@@H]1CCCN1C1CCc2ccc(-c3cnc4[nH]nc(-c5ccc(C6(O)CCC6)c(Cl)c5)c4c3)cc2CC1` (stereo partly drawn) [Example 62, 1-[2-Chloro-4-(5-{7-[(2R)-2-methylpyrrolidin-1-yl]-6,7,8,9-tetrahydro-5H-benzo[7]annulen-2-yl}-1H-pyrazolo[3,4-b]pyridin-3-yl)phenyl]cyclobutan-1-ol], the half-inhibitory concentration (IC50) in assay [1] and in assay [2] was below 100 nM throughout.

`C[C@@H]1CCCN1C1(C)CCc2ccc(-c3cnc4[nH]nc(-c5ccc(C(C)(C)O)nc5)c4c3)cc2CC1` (stereo partly drawn) [Example 22, 2-[5-(5-{7-Methyl-7-[(2R)-2-methylpyrrolidin-1-yl]-6,7,8,9-tetrahydro-5H-benzo[7]annulen-2-yl}-1H-pyrazolo[3,4-b]pyridin-3-yl)pyridin-2-yl]propan-2-ol]: the half-inhibitory concentration (IC50) in assay [1] and in assay [2] was below 100 nM each time.

In the case of `C[C@@H]1CCCN1C1(C)CCc2ccc(-c3cnc4[nH]nc(-c5ccc(S(=O)(=O)C(F)(F)F)cc5)c4c3)cc2CC1` (stereo partly drawn) [Example 8, (2R)-2-Methyl-1-{7-methyl-2-[3-(4-trifluoromethanesulfonylphenyl)-1H-pyrazolo[3,4-b]pyridin-5-yl]-6,7,8,9-tetrahydro-5H-benzo[7]annulen-7-yl}pyrrolidine], the IC50 is below 100 nM in assay [1] and above 1000 nM in assay [2].

As for `C[C@@H]1CCCN1C1(C)CCc2ccc(-c3cnc4[nH]nc(-c5ccc(S(=O)(=O)C6CCC6)cc5)c4c3)cc2CC1` (stereo partly drawn) [Example 46, 3-(4-(Cyclobutylsulfonyl)phenyl)-5-(7-methyl-7-((R)-2-methylpyrrolidin-1-yl)-6,7,8,9-tetrahydro-5H-benzo[7]annulen-2-yl)-1H-pyrazolo[3,4-b]pyridine], the IC50 in assay [1] and in assay [2] was below 100 nM throughout.

As for `FC1CN(c2ccc(-c3c[nH]c4ncc(-c5ccc6c(c5)CC[C@@H](N5C7COCC5C7)CC6)cc34)cc2)C1` [Example 127, 6-[(7S)-2-{3-[4-(3-fluoroazetidin-1-yl)phenyl]-1H-pyrrolo[2,3-b]pyridin-5-yl}-6,7,8,9-tetrahydro-5H-benzo[7]annulen-7-yl]-3-oxa-6-azabicyclo[3.1.1]heptane], the IC50 in assay [1] and in assay [2] was below 100 nM each time.

Consider `CC(C)(O)c1ccc(-c2n[nH]c3ncc(-c4ccc5c(c4)CCC(N4CCCC4)CC5)cc23)cc1Cl` (stereo not shown) [Example 11, 2-(2-Chloro-4-{5-[7-(pyrrolidin-1-yl)-6,7,8,9-tetrahydro-5H-benzo[7]annulen-2-yl]-1H-pyrazolo[3,4-b]pyridin-3-yl}phenyl)propan-2-ol], for which the IC50 in assay [1] and in assay [2] was below 100 nM each time.

In the case of `C[C@H]1CCCN1C1CCc2ccc(-c3cnc4[nH]nc(-c5ccc(C(C)(C)O)c(Cl)c5)c4c3)cc2CC1` (stereo partly drawn) [Example 37, 2-(2-Chloro-4-(5-(7-((S)-2-methylpyrrolidin-1-yl)-6,7,8,9-tetrahydro-5H-benzo[7]annulen-2-yl)-1H-pyrazolo[3,4-b]pyridin-3-yl)phenyl)propan-2-ol], the concentration for half-maximal inhibition (IC50) in assay [1] and in assay [2] was below 100 nM in each case.

On to `CC(C)(O)c1ccc(-c2n[nH]c3ncc(-c4ccc5c(c4)CCN(C4CCCC4)CC5)cc23)c(F)c1` [Example 17, 2-{4-[5-(3-Cyclopentyl-2,3,4,5-tetrahydro-1H-3-benzazepin-7-yl)-1H-pyrazolo[3,4-b]pyridin-3-yl]-3-fluorophenyl}propan-2-ol], for which the figures for the IC50 in assay [1] and in assay [2] were below 100 nM and 100 to 1000 nM, respectively.

For `CC(C)(O)c1ccc(-c2n[nH]c3ncc(-c4ccc5c(c4)CCC(N4CCCC4)CC5)cc23)cn1` (stereo not shown) [Example 9, 2-(5-{5-[7-(Pyrrolidin-1-yl)-6,7,8,9-tetrahydro-5H-benzo[7]annulen-2-yl]-1H-pyrazolo[3,4-b]pyridin-3-yl}pyridin-2-yl)propan-2-ol], the IC50 in assay [1] and in assay [2] was below 100 nM each time.

In the case of `CC1(N2CCC[C@H]2CO)CCc2ccc(-c3cnc4[nH]nc(-c5ccc(S(=O)(=O)C6CC6)cc5)c4c3)cc2CC1` (stereo partly drawn) [Example 4, [(2S)-1-(2-{3-[4-(Cyclopropanesulfonyl)phenyl]-1H-pyrazolo[3,4-b]pyridin-5-yl}-7-methyl-6,7,8,9-tetrahydro-5H-benzo[7]annulen-7-yl)pyrrolidin-2-yl]methanol], the IC50 in assay [1] and in assay [2] was below 100 nM in each case.

In the case of `COC1CCN(S(=O)(=O)c2ccc(-c3n[nH]c4ncc(-c5ccc6c(c5)CCC(C)(N5CCC[C@H]5C)CC6)cc34)cc2)CC1` (stereo partly drawn) [Example 103, 3-(4-((4-Methoxypiperidin-1-yl)sulfonyl)phenyl)-5-(7-methyl-7-((R)-2-methylpyrrolidin-1-yl)-6,7,8,9-tetrahydro-5H-benzo[7]annulen-2-yl)-1H-pyrazolo[3,4-b]pyridine], the IC50 was below 100 nM in assay [1] and 100 to 1000 nM in assay [2].

Consider `C[C@H]1CCCN1C1(C)CCc2ccc(-c3cnc4[nH]nc(-c5ccc(C(C)(C)O)c(Cl)c5)c4c3)cc2CC1` (stereo partly drawn) [Example 58, 2-[2-Chloro-4-(5-{7-methyl-7-[(2S)-2-methylpyrrolidin-1-yl]-6,7,8,9-tetrahydro-5H-benzo[7]annulen-2-yl}-1H-pyrazolo[3,4-b]pyridin-3-yl)phenyl]propan-2-ol], for which the results for the 50% inhibitory concentration (IC50) in assay [1] and in assay [2] were below 100 nM and 100 to 1000 nM, respectively.

Take `C[C@@H]1CCCN1C1CCc2ccc(-c3cnc4[nH]nc(-c5ccc(C(C)(C)O)c(C(F)(F)F)c5)c4c3)cc2CC1` (stereo partly drawn) [Example 20, 2-[4-(5-{7-[(2R)-2-Methylpyrrolidin-1-yl]-6,7,8,9-tetrahydro-5H-benzo[7]annulen-2-yl}-1H-pyrazolo[3,4-b]pyridin-3-yl)-2-(trifluoromethyl)phenyl]propan-2-ol]: the concentration for half-maximal inhibition (IC50) in assay [1] and in assay [2] was below 100 nM in each case.

In the case of `C[C@@H]1CCCN1C1(C)CCc2ccc(-c3cnc4[nH]nc(-c5ccc(C(N)=O)c(F)c5)c4c3)cc2CC1` (stereo partly drawn) [Example 52, 2-Fluoro-4-(5-(7-methyl-7-((R)-2-methylpyrrolidin-1-yl)-6,7,8,9-tetrahydro-5H-benzo[7]annulen-2-yl)-1H-pyrazolo[3,4-b]pyridin-3-yl)benzamide], the IC50 in assay [1] and in assay [2] was below 100 nM throughout.
